Activity calls are given as the source filed them. The calls are words filed in the database; no cut-off is given here.
How the values were obtained:
Trypanothione reductase = Trypanothione reductase (Trypanosoma cruzi, UniProt P28593); experiment: Compound was tested for inhibitory activity against recombinant Trypanothione reductase from Trypanosoma cruzi
[1] = system: Glutathione reductase (Bos taurus); experiment: Compound was tested for inhibitory activity against glutathione reductase from bovine intestinal mucosa; NI means no inhibition

Trypanothione reductase, sequence (P28593 whole entry): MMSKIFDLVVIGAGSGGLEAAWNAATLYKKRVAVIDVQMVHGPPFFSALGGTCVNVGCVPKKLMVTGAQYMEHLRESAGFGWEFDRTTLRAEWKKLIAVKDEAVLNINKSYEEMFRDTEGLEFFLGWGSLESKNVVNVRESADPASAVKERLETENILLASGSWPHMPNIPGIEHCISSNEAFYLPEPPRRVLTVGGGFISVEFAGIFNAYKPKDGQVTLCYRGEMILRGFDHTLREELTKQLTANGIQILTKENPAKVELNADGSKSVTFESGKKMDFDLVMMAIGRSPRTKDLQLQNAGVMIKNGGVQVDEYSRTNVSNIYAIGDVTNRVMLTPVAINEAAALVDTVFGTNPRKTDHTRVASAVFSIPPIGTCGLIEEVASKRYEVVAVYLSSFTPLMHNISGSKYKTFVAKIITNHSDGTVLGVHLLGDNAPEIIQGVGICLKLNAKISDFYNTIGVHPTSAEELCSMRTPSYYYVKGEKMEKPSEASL

SMILES | Ki (Trypanothione reductase) [µM] | Activity [1]
CN(C)CCCNC(=O)CNC(=O)C(CSCSCC(NC(=O)OCc1ccccc1)C(=O)NCC(=O)NCCCN(C)C)NC(=O)OCc1ccccc1 (stereo unspecified) | 31 | inactive
CN(C)CCCNC(=O)CNC(=O)C(CSCC(NC(=O)OCc1ccccc1)C(=O)NCC(=O)NCCCN(C)C)NC(=O)OCc1ccccc1 (stereo unspecified) | 92 | inactive
CN(C)CCCNC(=O)CNC(=O)C(CCSCC(NC(=O)OCc1ccccc1)C(=O)NCC(=O)NCCCN(C)C)NC(=O)OCc1ccccc1 (stereo unspecified) | 43 | inactive

— ChEMBL document CHEMBL1127111, “Synthesis of non reducible inhibitors for trypanothione reductase from Trypanosoma cruzi” (Bioorg Med Chem Lett, 1993)
